The source of these data is PMC10279719 (Nature Communications, 2023).

Bounds are passed on as bounds.

The target in experiment [1] is T1, CrkII^NSH3 (Homo sapiens, UniProt P46108).
T1 construct: CrkII^NSH3; UniProt P46108-1, residues 134–191; 8-His tag with TEV protease cleavage site (N); made in house; host or cells: E. coli C41 (DE3)
Nature of the experiment: SPR, PEAK PRM and tandem peptides binding to immobilised CrkII NSH3 domain. The following applies: peptide analyte over amine-coupled CrkII NSH3 (CM5); Biacore S200, HBS-TP pH 7.4, 20 °C; steady-state 1:1 fit; mean ± S.E.M. (N ≥ 3) or SD (N = 2); read-out: SPR KD, CrkII N-SH3. As to the method: SPR binding studies of PEAK PRM peptides to CrkII^NSH3 were performed using a Biacore S200 Instrument (Cytiva). Purified CrkII^NSH3 was diluted to 5 µg ml^−1 in 10 mM sodium acetate pH 4.0 and amine coupled at 25 °C to a Series S CM5 sensor chip, in HBS-N running buffer (20 mM HEPES pH 7.4, 150 mM NaCl) to a final immobilization level of 1100–1400 response units (RU), followed by surface deactivation using 1 M ethanolamine. A blank activation/deactivation was used for the reference surface. Peptide binding studies were performed at 20 °C in HBS-TP running buffer (20 mM HEPES pH 7.4, 150 mM NaCl, 1 mM TCEP, 0.005% (v/v) Tween-P20). […] Peptide stocks were further diluted to in running buffer to 10 or 20 µM and prepared as a 11-point concentration series (2-fold serial dilution, […] for PEAK PRM peptides, or 20 µM–20 nM for PEAK tandem motif peptides). Samples were injected in a multi-cycle run (flow rate 30 µl min^−1, contact time of 60 s, dissociation 120 s) without regeneration. Sensorgrams were double referenced, and steady-state binding data fitted using a 1:1 binding model using Biacore S200 Evaluation Software (Cytiva, v. 1.1).
(Surface plasmon resonance follows binding to a sensor surface in real time, without labels.)

In another experiment the target is T2, 14-3-3ε (Homo sapiens, UniProt P62258).
T2 construct: 14-3-3ε (UniProt P62258-1; residues 1–255); 8-His tag with TEV protease cleavage site (N); made in house; host or cells: E. coli C41 (DE3)
T2 sequence (P62258 1-255): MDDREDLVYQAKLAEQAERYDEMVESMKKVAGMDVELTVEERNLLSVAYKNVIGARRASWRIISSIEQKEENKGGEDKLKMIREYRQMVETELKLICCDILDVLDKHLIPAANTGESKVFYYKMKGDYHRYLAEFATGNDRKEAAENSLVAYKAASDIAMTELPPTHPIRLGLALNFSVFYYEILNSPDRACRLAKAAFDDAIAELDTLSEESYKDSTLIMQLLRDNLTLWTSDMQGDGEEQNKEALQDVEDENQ
The experiment is described as follows: SPR, PEAK tandem peptides binding to immobilised 14-3-3ε. The following applies: peptide analyte over amine-coupled 14-3-3ε (CM5); Biacore S200, HBS-TP pH 7.4, 20 °C; steady-state 1:1 fit; mean ± S.E.M.; read-out: SPR KD, 14-3-3ε (epsilon). As to the method:
Purified […]3 was diluted to 5 μg ml^-1 in 10 mM sodium acetate pH 4.0 and amine coupled at 25 °C to a Series S CM5 sensor chip, in HBS-N running buffer (20 mM HEPES pH 7.4, 150 mM NaCl) to a final immobilization level of 1100-1400 response units (RU), followed by surface deactivation using 1 M ethanolamine. A blank activation/deactivation was used for the reference surface. […] PEAK PRM peptides: […] Samples were injected in a multi-cycle run (flow rate 30 μl min^-1, contact time of 60 s, dissociation 120 s) without regeneration. Sensorgrams were double referenced, and steady-state binding data fitted using a 1:1 binding model using Biacore S200 Evaluation Software (Cytiva, v. 1.1). […] Representative sensorgrams and fitted dissociation constant (KD) values, depicted as mean ± S.E.M.

The target of the next experiment is T3, 14-3-3η (Homo sapiens, UniProt Q04917).
T3 construct: 14-3-3η (UniProt Q04917-1; residues 1–246); 8-His tag with TEV protease cleavage site (N); made in house; host or cells: E. coli C41 (DE3)
T3 sequence (Q04917 1-246): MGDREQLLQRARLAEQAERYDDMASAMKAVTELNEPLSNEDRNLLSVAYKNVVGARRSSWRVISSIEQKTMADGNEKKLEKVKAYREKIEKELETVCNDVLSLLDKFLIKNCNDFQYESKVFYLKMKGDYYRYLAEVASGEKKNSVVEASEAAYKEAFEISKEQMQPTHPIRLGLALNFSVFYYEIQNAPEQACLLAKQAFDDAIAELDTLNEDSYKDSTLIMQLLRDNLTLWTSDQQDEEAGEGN
Nature of the experiment: SPR, PEAK tandem peptides binding to immobilised 14-3-3η. As to conditions: peptide analyte over amine-coupled 14-3-3η (CM5); Biacore S200, HBS-TP pH 7.4, 20 °C; steady-state 1:1 fit; mean ± S.E.M.; read-out: SPR KD, 14-3-3η (eta). As to the method:
Purified […]3 was diluted to 5 μg ml^-1 in 10 mM sodium acetate pH 4.0 and amine coupled at 25 °C to a Series S CM5 sensor chip, in HBS-N running buffer (20 mM HEPES pH 7.4, 150 mM NaCl) to a final immobilization level of 1100-1400 response units (RU), followed by surface deactivation using 1 M ethanolamine. A blank activation/deactivation was used for the reference surface. […] Samples were injected in a multi-cycle run (flow rate 30 μl min^-1, contact time of 60 s, dissociation 120 s) without regeneration. Sensorgrams were double referenced, and steady-state binding data fitted using a 1:1 binding model using Biacore S200 Evaluation Software (Cytiva, v. 1.1). […] Representative sensorgrams and fitted dissociation constant (KD) values, depicted as mean ± S.E.M.

Experiment [2] concerns the target T1, CrkII^NSH3. Nature of the experiment: ITC, CrkII NSH3 titrated into PEAK3 tandem peptides (binary) or peptide:14-3-3γ complexes (ternary). As to conditions: CrkII NSH3 (400 µM, syringe) into peptide pre-saturated with 14-3-3γ (16.8 µM, cell), 25 °C, HEPES pH 7.4, mean ± S.E.M. of N = 4 (pS69) or N = 1 (non-phosphorylated), read-out: ITC KD, CrkII N-SH3, ternary. Type of experiment: binding. The method, then: ITC binding experiments were conducted using a MicroCal iTC200 instrument (Malvern Instruments). Titrations were conducted at 25 °C in reverse mode (peptide in cell, protein in syringe) and consisted of 19 injections of 2 μl […] at a rate of 2 s μl^−1 at 90 s time intervals, whilst stirring at 1000 rpm. An initial injection of 0.4 μl protein was made and discarded during data analysis. Proteins (14-3-3ɣ or CrkII^NSH3) were first dialyzed overnight at 4 °C into ITC buffer (20 mM HEPES pH 7.4, 150 mM NaCl, 1 mM TCEP), filtered and degassed under vacuum. […] Following the first titration, excess solution was removed from the cell, and the syringe was washed and dried. […] All data were fitted to a single binding site model to obtain the stoichiometry (N), dissociation constant (KD) and the enthalpy of binding (ΔH), using MicroCal PEAQ-ITC Analysis software (v.1.41).

T1 sequence (P46108 134-191): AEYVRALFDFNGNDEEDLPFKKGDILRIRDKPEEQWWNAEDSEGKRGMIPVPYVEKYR

The Kd is a measure of binding affinity in units of concentration. For the compound `CC[C@H](C)[C@H](NC(=O)[C@H](CCCCN)NC(=O)[C@H](CCCCN)NC(=O)[C@@H]1CCCN1C(=O)[C@H](CC(C)C)NC(=O)[C@@H]1CCCN1C(=O)[C@@H]1CCCN1C(=O)[C@@H]1CCCN1C(=O)[C@H](CC(C)C)NC(=O)[C@@H]1CCCN1C(C)=O)C(=O)N[C@@H](CC(C)C)C(=O)N[C@H](C(=O)N[C@@H](CCCNC(=N)N)C(=O)N[C@H](C(=O)N[C@@H](CCC(N)=O)C(=O)N[C@@H](CO)C(=O)N[C@@H](CC(C)C)C(=O)N1CCC[C@H]1C(=O)N[C@H](C(=O)N[C@@H](CCCNC(=N)N)C(=O)N[C@@H](CCCNC(=N)N)C(N)=O)[C@@H](C)O)[C@@H](C)O)[C@@H](C)O` (single isomer, unassigned) [PEAK3^tandem], the Kd at CrkII^NSH3 [1] is 600 ± 20 nM; on 14-3-3ε, > 100000 nM; on 14-3-3η, > 100000 nM; at CrkII^NSH3 [2], 700 nM.
